Laboratory results as given in patent US9005677B2, “Autophagy enhancer for treatment of neurodegenerative diseases” (Macau University of Science and Technology, priority 2013, dated 2015).
Entries after “also recorded” stand apart in the source; their conditions may differ.

Columns and labels:
[1] = tested on: EGFP-HDQ74 transfected Atg7 wild-type mouse embryonic fibroblasts; experiment: Mutant huntingtin aggregates and LC3 conversion in Atg7 wild-type MEFs; type: cell-based
Description: (§1) Quantification of mutant huntingtin aggregates in PC12, Atg7 wild type and deficient MEFs. In brief, both EGFP-HDQ74 transfected PC12, Atg7 wild-type and deficient mouse embryonic fibroblasts (MEFs) grown on coverslips in a 6-well plate were treated with indicated concentrations of Onjisaponin B. The cells were then fixed in 4% paraformaldehyde for 20 minutes at room temperature and then rinsed with PBS. Slides were mounted with FluorSave™ mounting media (Calbiochem, San Diego, Calif.) and examined by fluorescence microscopy. The number of cells with GFP-aggregates formation was examined under the Nikon ECLIPSE 80i microscope. Representative images were captured with CCD digital camera Spot RT3™ (Diagnostic Instruments, Inc., Melville, N.Y.). To quantify the clearance of mutant huntingtin, the percentage of cells with GFP-aggregates was calculated by counting the number of the cells with punctate GFP-LC3 fluorescence in GFP-positive cells. A minimum of 150 cells from 3 randomly selected fields was scored.
Detection of autophagic marker protein LC3 conversion and HTT 74 mutant aggregates. After drug treatments for Atg7 wild type and deficient MEFs, cells were harvested and lysed in RIPA buffer (Cell Signaling Technologies Inc., Beverly, Mass.). The cell lysates were then resolved by SDS-PAGE. […]

[2] = target: T1, α-synuclein oligomerization in HeLa cells transfected with GNS and SGC (Homo sapiens, UniProt P37840); experiment: Bimolecular fluorescence complementation (BiFC) assay; type: cell-based; conditions: 24 hours at 30° C.
T1 construct: expressed in transfected cells; host or cells: HeLa cells
Description: Bimolecular fluorescence complementation (BiFC) assay. In brief, HeLa cells transfected with both GFP-N terminal-α-synuclein (GNS) and α-synuclein-GFP-C terminal (SGC) plasmids were incubated at 37° C. for 4 hours. Then, the transfected cells were incubated with different concentrations of Radix Polygalae ethanol extract or Onjisaponin B for a further 24 hours at 30° C.. Fluorescent signals upon complete GFP fluorophore reconstitution in cells were then detected by flow analysis.
Results: By using the bimolecular fluorescence complementation (BiFC) assay, the oligomerization of α-synuclein in living cells can be directly quantified. In brief, α-synuclein proteins fused with two different non-fluorescent GFP terminal fragments, (i) GFP-N terminal-α-synuclein (GNS) or (ii) α-synuclein-GFP-C terminal (SGC) respectively were used. Upon oligomerization of α-synuclein, the two non-fluorescent fractions of GFP will therefore reconstitute the complete GFP fluorophore and transmit GFP fluorescent signal within cells. This signal in turn can be quantified by flow cytometry analysis.

PC-12 cells [3] = experiment: MTT cytotoxicity assay; type: cell-based, rat; conditions: 0.039-100 μmol/L, 48 hours
Description: (§2) Cell culture and cytotoxicity assay: The test compound of Onjisaponin B was dissolved in DMSO at a final concentration of 100 mmol/L and stored at −20° C. Cytotoxicity was assessed using the 3-(4,5-dimethylthiazol-2-yl) -2,5-diphenyltetrazolium bromide assay as described previously. PC-12, 4000 cells were seeded on 96-well plates per well. After overnight pre-incubation, the cells were exposed to different concentrations of Onjisaponin B (0.039-100 μmol/L) for 2 days. Subsequently, 10 μL of MTT reagents was added to each well and incubated at 37° C. for 4 hours followed by the addition of 100 μL solubilization buffer (10% SDS in 0.01 mol/L HCl) and overnight incubation. Absorbance at 585 nm was determined from each well the next day. For cell viability assay measured by crystal violet staining, PC-12 cells were incubated in 35 mm disc followed by the addition of Onjisaponin B at the indicated concentrations for 24 hours. The cells were then incubated with crystal violet for 10 minutes followed by a ddH2O wash. […] Cell viability was quantified by dissolving the stained cells in 10% acetic acid (200 μL/well). The colorimetric reading of the solute mixture was then determined by spectrophotometer at OD 560 nm The percentage of cell viability was calculated using the following formula: Cell viability (%)=Cells number treated/Cells number DMSO control×100. […]

PC-12 cells [4] = experiment: Cell viability by crystal violet staining; type: cell-based, rat; conditions: 24 hours
Description: as §2

[5] = tested on: GFP-LC3 puncta formation in PC12 cells; experiment: Quantification of autophagy GFP-LC3 puncta; type: cell-based, rat; conditions: fluorescent microscopy
Description: Quantification of autophagy GFP-LC3 Puncta. GFP-LC3 puncta formation was quantified as described previously. In brief, cells grown on coverslips in a 6-well plate were fixed in 4% paraformaldehyde for 20 minutes at room temperature and then rinsed with PBS. Slides were mounted with FluorSave™ mounting media (Calbiochem, San Diego, Calif.) and examined by fluorescence microscopy. The number of GFP-positive cells with GFP-LC3 puncta formation was examined under the Nikon ECLIPSE 80i microscope. Representative images were captured with CCD digital camera Spot RT3™ (Diagnostic Instruments, Inc., Melville, N.Y.). To quantify autophagy, the percentage of cells with punctate GFP-LC3 fluorescence was calculated by counting the number of the cells with punctate GFP-LC3 fluorescence in GFP-positive cells. A minimum of 150 cells from 3 randomly selected fields was scored.

[6] = tested on: EGFP-HDQ74 inclusions in PC12 cells; experiment: Mutant huntingtin aggregates in PC12, fluorescence microscopy; type: cell-based, rat; conditions: immunocytochemistry
Description: as §1

[7] = tested on: P-AMPK and P-p70S6K in PC12 cells; experiment: Western blot of mTOR signaling marker proteins; type: cell-based, rat
Description: Detection of mTOR signaling marker proteins. PC12 cells treated with indicated time and concentrations of Onjisaponin B were harvested and lysed in RIPA buffer (Cell Signaling). The cell lysates were then resolved by SDS-PAGE. After electrophoresis, the proteins from SDS-PAGE were transferred to nitrocellulose membrane which was then blocked with 5% non-fat dried milk for 60 minutes. The membrane was then incubated with P-p70S6K, p70S6K, P-AMPK, AMPK primary antibodies (1:1000) in TBST overnight at 4° C. respectively. After that, the membrane was further incubated with HRP-conjugated secondary antibodies for 60 minutes. Finally, protein bands were visualized by using the ECL Western Blotting Detection Reagents (Invitrogen).

COc1ccc(/C=C/C(=O)O[C@@H]2[C@H](O[C@@H]3O[C@@H](C)[C@H](O)[C@@H](O)[C@H]3O)[C@@H](O[C@@H]3O[C@@H](C)[C@H](O[C@@H]4OC[C@@H](O[C@@H]5O[C@H](CO)[C@H](O)[C@H](O)[C@H]5O)[C@H](O)[C@H]4O)[C@@H](O)[C@H]3O)[C@H](OC(=O)[C@]34CCC(C)(C)C[C@H]3C3=CC[C@@H]5[C@@]6(C)C[C@H](O)[C@H](O[C@@H]7O[C@H](CO)[C@@H](O)[C@H](O)[C@H]7O)[C@@](C)(C(=O)O)[C@@H]6CC[C@@]5(C)[C@]3(CO)CC4)O[C@@H]2C)cc1 [Onjisaponin B]
Clearance of EGFP-HDQ74 inclusions in autophagy-wild type cells [1]: enhanced the clearance of EGFP-HDQ74 inclusions | LC3II formation in wild type Atg7 cells transfected with EGFP-HDQ74 ([1]; western blot): LC3II formation in wild type Atg7 cells | Oligomerization of α-synuclein (GFP fluorescent signal, flow analysis) [2]: inhibit the oligomerization of α-synuclein | Cytotoxicity in PC-12 cells (MTT assay) (PC-12 cells [3]): no significant cytotoxic effect; also recorded: no toxicity observed overtly | Morphological damage in PC12 cells (crystal violet assay) (PC-12 cells [4]): no significant morphological damage | GFP-LC3 puncta formation [5]: increased the formation of GFP-LC3 puncta formation in a dose dependent manner | Clearance of inclusions formed by EGFP-HDQ74 in PC12 cells [6]: enhanced the clearance of inclusions formed by EGFP-HDQ74 | Phosphorylation of AMPK ([7]; 25 μM at 8, 16, 24 hour, 3, 6.25, 12.5, 25 μM at 24 hour): activate the phosphorylation of AMPK in a time dependent manner | p70S6K phosphorylation ([7]; same treatments as AMPK blot): concomitant reduction in its downstream p70S6K phosphorylation
